Measurements as given in article PMC3124071 (Journal of medicinal chemistry, 2011).

What was measured:
[1] = oral; 7 (100 mg/kg) versus 4 (300 mg/day) or 5 (1000 mg/day) ref 22; cited from earlier work
[2] = target: T1, human uric acid transporter 1 (hURAT1; SLC22A12) (Homo sapiens, UniProt Q96S37); test: 14C-uric acid uptake inhibition in Xenopus oocytes expressing hURAT1; assay type: cell-based; settings: for 14C-urate transport inhibition (in words): test compound at 50 μM
T1 sequence (Q96S37 1-553): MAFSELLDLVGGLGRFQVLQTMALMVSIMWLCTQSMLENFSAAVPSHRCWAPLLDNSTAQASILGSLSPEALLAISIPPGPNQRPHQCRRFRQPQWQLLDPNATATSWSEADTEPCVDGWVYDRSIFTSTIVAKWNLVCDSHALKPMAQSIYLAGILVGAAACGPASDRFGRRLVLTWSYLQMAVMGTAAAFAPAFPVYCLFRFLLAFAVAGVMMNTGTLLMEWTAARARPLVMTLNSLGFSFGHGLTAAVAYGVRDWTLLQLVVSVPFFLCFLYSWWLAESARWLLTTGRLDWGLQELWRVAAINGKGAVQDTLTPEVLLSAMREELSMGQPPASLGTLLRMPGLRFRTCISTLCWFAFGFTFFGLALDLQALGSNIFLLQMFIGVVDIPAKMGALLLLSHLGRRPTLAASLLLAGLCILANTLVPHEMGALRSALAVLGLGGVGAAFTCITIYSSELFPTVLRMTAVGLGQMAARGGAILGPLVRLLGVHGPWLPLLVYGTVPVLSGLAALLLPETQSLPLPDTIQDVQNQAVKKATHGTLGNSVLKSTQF

[3] = urate-lowering therapy ref 6; cited from earlier work

Structure (SMILES) | 14C-urate transport inhibition (in words) [2] | IC50 [2] | further results
CCc1oc2ccccc2c1C(=O)c1cc(Br)c(O)c(Br)c1 [Compound 7, (3,5-dibromo-4-hydroxyphenyl)(2-ethylbenzofuran-3-yl)methanone] |  |  | physiological effect (lowers urate level) compared with 4 and 5 [1]: greater physiological effect
CCc1oc2ccc(OC)cc2c1C(=O)c1ccc(OC)cc1 [Compound 14, (2-ethyl-5-methoxybenzofuran-3-yl)(4-methoxyphenyl)methanone] | weak inhibition |  | 
Oc1ncnc2[nH]ncc12 [Compound 3, allopurinol] |  |  | patients able to meet treatment goals [3]: about 40%
CCc1oc2ccccc2c1C(=O)c1ccc(OC)cc1 [Compound 12, (2-ethylbenzofuran-3-yl)(4-methoxyphenyl)methanone] | weak-to-no | > 50 µM | 
CCc1oc2cc(OC)c(Br)cc2c1C(=O)c1cc(Br)c(O)c(Br)c1 [Compound 46, (5-bromo-2-ethyl-6-methoxybenzofuran-3-yl)(3,5-dibromo-4-hydroxyphenyl)methanone] |  | 1.65 ± 0.12 µM | inhibition at 50 µM ([2]; read-out: % Inhibition @ 50 μM): 98.1 ± 0.2%
CCc1oc2c(OC)cccc2c1C(=O)c1ccc(OC)cc1 [Compound 19, (2-ethyl-7-methoxybenzofuran-3-yl)(4-methoxyphenyl)methanone] | weak inhibition |  | 
